# Test results from US20240238274A1, “INHIBITORS OF UBIQUITIN SPECIFIC PEPTIDASE 22 (USP22) AND USES THEREOF FOR TREATING DISEASE AND DISORDERS” (Northwestern University, priority 2021, published 2024).
# System: Foxp3 in iTreg cells
# Assay: In vitro dose response and mechanism study in WT, Usp22-null and Usp21-null Treg cells
# Format: cell-based, murine
# Description: FIG. 15: Usp22i-S02 halts Usp22-mediated Foxp3 deubiquitination. A, Graphical representation of Foxp3 MFI change in WT versus 22KO iTreg cells treated with various doses of Usp22i-S02 (n=3). B, Representative histogram of Foxp3 MFI level in iTreg cells as Usp22 inhibitor concentration increases from 0-20 μg/mL. C, Cell survival of iTreg cells treated with various doses of Usp22i-S02 (n=3). D, FOXP3 and USP22 protein level in WT and 22KO mice treated with 10 μg/mL Usp22i-S02. E-F, Graphical and representative data of Foxp3 MFI of human Treg cells treated with various doses of Usp22i-S02 (n=3). G, Graphical representation of Foxp3 MFI in WT, Usp21-null, and Usp22-null Treg cells treated with Usp22i-S02 at 10 μg/mL (n=3). H, FOXP3 and USP22 protein degradation of cycloheximide (10 μg/mL) treated iTreg cells with or without the addition of 10 μg/mL of Usp22i-S02. I-J, Endogenous DUB assay IP in iTreg cells of USP22 with FOXP3 under increasing concentrations of Usp22i-S02. K, Foxp3 mRNA level in iTreg cells as Usp22 inhibitor concentration increases from 0-20 μg/mL (n=3). L, FOXP3 and USP22 level in WT iTreg cells with or without 20 μg/mL Usp22 inhibitor treated with 20 μM MG132. M, Graphical representation of the percentage of decrease of Foxp3 MFI in either WT or Usp22-null nTreg cells placed in low glucose conditions with or without the addition of 10 μg/mL of Usp22i-S02 (n=7-8). N, Graphical representation of the percentage of decrease of Foxp3 MFI in WT nTreg cells placed in hypoxic or low amino acid conditions with or without the addition of 10 μg/mL of Usp22i-S02 (n=3-5). G, Two-tailed unpaired t-test comparing within groups was performed to determine statistical significance. K, One-way ANOVA with Dunnet's multiple comparisons between rows relative to control was performed to determine statistical significance. M-N, Two-way ANOVA with Sidak's multiple comparisons between rows was performed to determine statistical significance. All data are presented as mean±stdev. NS, not significant. *P<0.05, **P<0.01, ***P<0.001, ****P<0.0001.
# After initial screening, we ran an in vitro dose response study on compound S02, now dubbed Usp22i-S02, in both WT and Usp22-null iTreg cells (FIG. 15A-C).
# All nTreg and iTreg cells were plated as described above DMOG (Sigma Catalog #D3695) was administered to the cells in relevant experiments at 1 mM for 24 hours. Oligomycin (Sigma Catalog #75351) was administered at 1 μM to the media of the cells in relevant experiments for 24 hours. Torin 1 (Millipore Catalog #475991) was administered to the relevant cells at 250 nM for 24 hours. FOXP3 protein level was assessed via flow cytometry following […] of treatment of inhibitors described above. In vitro administration of Usp22i-S02 was at 10 ug/mL.
structure (smiles),measurement,setting,value
"N#Cc1c2c(c(Nc3ccccc3)n3c1nc1ccccc13)CCCC2 [Chemical S02, 11-anilino-7,8,9,10-tetrahydro-benzimidazo [1,2-b] isoquinoline-6-carbonitrile]",viability of iTreg cells,10 μg/mL,little effect on viability
same,effect on Foxp3 in iTreg cells lacking Usp21,"Usp21-null iTreg cells, 10 μg/mL",full effect
same,Foxp3 MFI and protein level,"WT iTreg cells, 10 μg/mL",decreases in Foxp3 MFI and protein level comparable to Usp22-null iTreg cells
same,Foxp3 stability under glucose starvation,"WT nTreg cells, low glucose, 10 μg/mL",significantly diminished Foxp3 stability
same,FOXP3 degradation,cycloheximide (CHX) treated iTreg cells,enhanced FOXP3 degradation
same,Foxp3 transcription,"iTreg cells, Foxp3 mRNA, 0-20 μg/mL",decreased Foxp3 transcription
same,FOXP3 ubiquitination,"iTreg cells, endogenous DUB assay IP",increased FOXP3 ubiquitination
same,FOXP3 levels in Treg cells lacking Usp22,"murine Treg cells lacking Usp22, in vivo and in vitro",minimal effect on FOXP3 levels
